Test results: patent publication EP0487030A2, “Process of optical resolution for the preparation of an optically active cyclic amine” (SHIONOGI SEIYAKU KABUSHIKI KAISHA trading under the name of …, priority 1990, dated 1992)
In brackets after ≈: the same amount, converted by molar mass. Where two headings read alike, the source gives them in different places.

Assays:
Assay in all cases: Minimum growth inhibitory concentration, method of the Japan Society of Chemotherapy
Format in all cases: cell-based
[1] = test system: Staphylococcus aureus SR3131; conditions: bacteria A: Staphylococcus aureus SR3131; bacteria ×10⁶/ml
From the text: (§1) The results are shown in Table 1. • (A) : Staphylococcus aureus SR3131 • (B) : Staphylococcus aureus SR3637 • (C) : Staphylococcus aureus SR57690FLX-R* • (D) : Streptococcus pneumoniae • (E) : Streptococcus faecalis SR58180FLX-R* • (F) : Escherichia coli EC-7437 • (G) : Escherichia coli SR5038 OFLX-R* * : ofloxacin resistant bacteria

[2] = test system: Escherichia coli SR5038 OFLX-R; conditions: SR5038OFLXR, read-out: Minimum Inhibitory Concentration
From the text: as §1

Escherichia coli EC-7437 = conditions: EC7437; bacteria F: Escherichia coli EC-7437; bacteria ×10⁶/ml
From the text: as §1

[3] = test system: Streptococcus faecalis SR58180FLX-R; conditions: Enterococcus faecalis, SR58180FLXR, read-out: Minimum Inhibitory Concentration
From the text: as §1

[4] = test system: Staphylococcus aureus SR3637; conditions: bacteria B: Staphylococcus aureus SR3637; bacteria ×10⁶/ml
From the text: as §1

[5] = test system: Staphylococcus aureus SR57690FLX-R; conditions: SR57690FLXR, read-out: Minimum Inhibitory Concentration
From the text: as §1

Streptococcus pneumoniae = conditions: bacteria D: Streptococcus pneumoniae; bacteria ×10⁶/ml
From the text: as §1

Compound	MIC [1]	MIC ([2]; Escherichia coli)	MIC (Escherichia coli EC-7437)	MIC [3]	MIC [4]	MIC [5]	MIC (Streptococcus pneumoniae)	MIC ([2]; bacteria G: Escherichia coli SR5038 OFLX-R, ofloxacin resistant, bacteria ×10⁶/ml)
C=C1CN(c2c(F)cc3c(=O)c(C(=O)O)cn(C4CC4)c3c2F)CC1NC (racemic) [Racemate of the compound 1]	0.1 µg/mL (≈ 0.266 µM)	12.5 µg/mL (≈ 33.3 µM)	0.006 µg/mL (≈ 0.016 µM)	12.5 µg/mL (≈ 33.3 µM)	0.1 µg/mL (≈ 0.266 µM)	6.3 µg/mL (≈ 16.8 µM)	0.4 µg/mL (≈ 1.07 µM)	–
C=C1CN(c2c(F)cc3c(=O)c(C(=O)O)cn(C4CC4)c3c2F)C[C@H]1NC [Compound 1, 7-((-)-(S)-3-Methylamino-4-methylenepyrrolidine)-1-cyclopropyl-6,8-difluoro-1,4-dihydro-4-oxo-3-quinolinecarboxylic acid]	0.05 µg/mL (≈ 0.133 µM)	12.5 µg/mL (≈ 33.3 µM)	< 0.003 µg/mL	6.3 µg/mL (≈ 16.8 µM)	0.05 µg/mL (≈ 0.133 µM)	6.3 µg/mL (≈ 16.8 µM)	0.2 µg/mL (≈ 0.533 µM)	–
CC1COc2c(N3CCN(C)CC3)c(F)cc3c(=O)c(C(=O)O)cn1c23 (stereo not drawn) [Ofloxacin]	0.4 µg/mL (≈ 1.11 µM)	–	< 0.02 µg/mL	100 µg/mL (≈ 277 µM)	0.4 µg/mL (≈ 1.11 µM)	50 µg/mL (≈ 138 µM)	1.6 µg/mL (≈ 4.43 µM)	50 µg/mL (≈ 138 µM)
